A short description of test [1]: Inhibition of HSP90 (unknown origin) by AlphaScreen assay. On the set-up: species or system Homo sapiens. On the technique in general: Bead proximity is the source of the signal in Alpha formats.
In test [2] the target is Serine/threonine-protein kinase B-raf (Homo sapiens, UniProt P15056, V600E). Nature of the test: Inhibition of B-Raf V600E mutant (unknown origin).
Test [3] addresses Serine/threonine-protein kinase B-raf (Homo sapiens, UniProt P15056). Put plainly: Inhibition of B-Raf (unknown origin).
Test [4] deals with T1, Heat shock protein HSP 90-alpha (Homo sapiens, UniProt P07900). Nature of the test: Inhibition of HSP90alpha (unknown origin).
A further test addresses Endoplasmin (Homo sapiens, UniProt P14625). Nature of the test: Inhibition of recombinant GRP94 (unknown origin).
Test [5] addresses T1, Heat shock protein HSP 90-alpha. Nature of the test: Binding affinity to recombinant HSP90alpha (unknown origin) assessed as dissociation constant measured for 24 hrs by fluorescence polarization assay. (Fluorescence polarisation rises when a labelled molecule tumbles more slowly, as on binding a larger partner.)
The target is the same in test [6]. Put plainly: Binding affinity to HSP90alpha (unknown origin) assessed as dissociation constant by fluorescence polarization assay.
Test [7] has as its target [Pyruvate dehydrogenase (acetyl-transferring)] kinase isozyme 1, mitochondrial (Homo sapiens, UniProt Q15118). Put plainly: Inhibition of PDHK1 (unknown origin).
For test [8], the target named is Heat shock protein HSP 90-beta (Homo sapiens, UniProt P08238). Nature of the test: Binding affinity to HSP90beta (unknown origin) assessed as dissociation constant by fluorescence polarization assay.
Chain of Heat shock protein HSP 90-beta (P08238 whole entry): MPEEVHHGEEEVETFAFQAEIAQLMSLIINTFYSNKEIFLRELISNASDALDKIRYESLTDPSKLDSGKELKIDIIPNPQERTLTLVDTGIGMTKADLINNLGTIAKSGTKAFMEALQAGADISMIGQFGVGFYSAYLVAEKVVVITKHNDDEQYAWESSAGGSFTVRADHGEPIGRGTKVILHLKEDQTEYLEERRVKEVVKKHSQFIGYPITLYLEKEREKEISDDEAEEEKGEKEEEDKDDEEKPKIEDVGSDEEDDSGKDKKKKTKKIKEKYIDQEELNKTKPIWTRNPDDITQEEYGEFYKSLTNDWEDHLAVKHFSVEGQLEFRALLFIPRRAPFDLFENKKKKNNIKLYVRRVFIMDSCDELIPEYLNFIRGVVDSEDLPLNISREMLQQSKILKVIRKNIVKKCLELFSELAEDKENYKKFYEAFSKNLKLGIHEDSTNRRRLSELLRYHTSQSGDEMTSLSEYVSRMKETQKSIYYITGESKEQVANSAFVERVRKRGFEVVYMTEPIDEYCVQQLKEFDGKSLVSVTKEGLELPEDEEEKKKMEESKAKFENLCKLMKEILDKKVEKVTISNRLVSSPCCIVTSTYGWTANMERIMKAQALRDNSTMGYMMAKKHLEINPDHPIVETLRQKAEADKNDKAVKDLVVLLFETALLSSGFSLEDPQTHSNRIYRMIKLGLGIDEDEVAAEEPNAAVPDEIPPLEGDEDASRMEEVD
For the next test, the target named is Tubulin. Nature of the test: Inhibition of tubulin polymerization (unknown origin). In kind it is protein-complex assay, Homo sapiens.
The nature of test [9]: Inhibition of DNA topoisomerase 2 (unknown origin). Further details: species or system Homo sapiens.

SMILES strings stand for the structures. pIC50, pKd: −log10 of the molar value. Bounds are passed on as bounds.

Chain of [Pyruvate dehydrogenase (acetyl-transferring)] kinase isozyme 1, mitochondrial (Q15118 whole entry): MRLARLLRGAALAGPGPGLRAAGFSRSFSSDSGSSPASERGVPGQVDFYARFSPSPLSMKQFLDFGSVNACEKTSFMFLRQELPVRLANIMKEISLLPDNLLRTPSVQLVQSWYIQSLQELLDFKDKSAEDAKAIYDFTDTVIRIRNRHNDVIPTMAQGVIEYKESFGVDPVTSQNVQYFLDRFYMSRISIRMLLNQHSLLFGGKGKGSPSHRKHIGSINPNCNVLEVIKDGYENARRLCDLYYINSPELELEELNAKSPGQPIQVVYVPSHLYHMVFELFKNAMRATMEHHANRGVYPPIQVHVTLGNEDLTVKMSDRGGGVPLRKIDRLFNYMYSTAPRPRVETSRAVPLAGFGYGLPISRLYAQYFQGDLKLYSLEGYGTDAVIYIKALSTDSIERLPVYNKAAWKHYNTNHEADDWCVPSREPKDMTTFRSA
Chain of Serine/threonine-protein kinase B-raf (Homo sapiens, UniProt P15056, V600E) (P15056 2-766 V600E limits assumed): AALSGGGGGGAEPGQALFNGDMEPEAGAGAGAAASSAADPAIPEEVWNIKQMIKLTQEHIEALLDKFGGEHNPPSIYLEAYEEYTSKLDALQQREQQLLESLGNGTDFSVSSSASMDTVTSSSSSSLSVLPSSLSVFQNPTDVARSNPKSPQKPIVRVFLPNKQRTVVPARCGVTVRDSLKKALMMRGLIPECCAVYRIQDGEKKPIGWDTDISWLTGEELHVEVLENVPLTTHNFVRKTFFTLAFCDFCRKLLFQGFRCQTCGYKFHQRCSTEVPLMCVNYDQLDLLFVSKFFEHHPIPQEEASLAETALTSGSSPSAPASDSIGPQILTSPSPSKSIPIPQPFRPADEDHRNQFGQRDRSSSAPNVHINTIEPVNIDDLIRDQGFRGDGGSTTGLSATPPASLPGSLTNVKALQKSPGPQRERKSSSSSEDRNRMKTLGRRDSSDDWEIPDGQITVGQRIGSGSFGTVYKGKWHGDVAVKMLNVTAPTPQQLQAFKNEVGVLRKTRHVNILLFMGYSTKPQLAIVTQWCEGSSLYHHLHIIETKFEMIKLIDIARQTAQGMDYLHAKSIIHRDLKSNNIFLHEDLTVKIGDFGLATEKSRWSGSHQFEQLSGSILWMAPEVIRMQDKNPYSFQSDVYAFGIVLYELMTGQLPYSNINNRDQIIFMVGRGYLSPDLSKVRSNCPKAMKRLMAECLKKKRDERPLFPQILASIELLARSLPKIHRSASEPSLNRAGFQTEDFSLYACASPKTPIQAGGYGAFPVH
Chain of Serine/threonine-protein kinase B-raf (Homo sapiens, UniProt P15056) (P15056 whole entry): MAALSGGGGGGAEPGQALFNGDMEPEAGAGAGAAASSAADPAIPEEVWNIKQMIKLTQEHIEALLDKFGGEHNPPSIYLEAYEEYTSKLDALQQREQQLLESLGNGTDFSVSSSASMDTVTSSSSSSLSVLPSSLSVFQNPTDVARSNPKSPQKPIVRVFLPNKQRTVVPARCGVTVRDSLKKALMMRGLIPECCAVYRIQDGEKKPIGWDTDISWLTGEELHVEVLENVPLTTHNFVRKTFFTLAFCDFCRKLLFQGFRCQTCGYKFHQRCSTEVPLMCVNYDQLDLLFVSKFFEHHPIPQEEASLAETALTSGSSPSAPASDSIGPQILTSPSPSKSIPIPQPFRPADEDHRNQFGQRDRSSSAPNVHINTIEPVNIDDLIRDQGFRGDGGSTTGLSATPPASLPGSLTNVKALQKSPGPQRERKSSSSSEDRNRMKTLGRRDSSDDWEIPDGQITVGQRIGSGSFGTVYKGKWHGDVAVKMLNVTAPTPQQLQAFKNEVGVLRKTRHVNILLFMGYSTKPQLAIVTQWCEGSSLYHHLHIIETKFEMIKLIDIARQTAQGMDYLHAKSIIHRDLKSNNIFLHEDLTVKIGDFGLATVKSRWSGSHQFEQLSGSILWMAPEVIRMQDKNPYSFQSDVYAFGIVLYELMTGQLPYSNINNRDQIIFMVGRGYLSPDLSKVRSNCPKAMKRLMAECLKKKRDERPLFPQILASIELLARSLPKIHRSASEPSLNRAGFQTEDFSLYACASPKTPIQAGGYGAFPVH
Chain of Endoplasmin (P14625 whole entry): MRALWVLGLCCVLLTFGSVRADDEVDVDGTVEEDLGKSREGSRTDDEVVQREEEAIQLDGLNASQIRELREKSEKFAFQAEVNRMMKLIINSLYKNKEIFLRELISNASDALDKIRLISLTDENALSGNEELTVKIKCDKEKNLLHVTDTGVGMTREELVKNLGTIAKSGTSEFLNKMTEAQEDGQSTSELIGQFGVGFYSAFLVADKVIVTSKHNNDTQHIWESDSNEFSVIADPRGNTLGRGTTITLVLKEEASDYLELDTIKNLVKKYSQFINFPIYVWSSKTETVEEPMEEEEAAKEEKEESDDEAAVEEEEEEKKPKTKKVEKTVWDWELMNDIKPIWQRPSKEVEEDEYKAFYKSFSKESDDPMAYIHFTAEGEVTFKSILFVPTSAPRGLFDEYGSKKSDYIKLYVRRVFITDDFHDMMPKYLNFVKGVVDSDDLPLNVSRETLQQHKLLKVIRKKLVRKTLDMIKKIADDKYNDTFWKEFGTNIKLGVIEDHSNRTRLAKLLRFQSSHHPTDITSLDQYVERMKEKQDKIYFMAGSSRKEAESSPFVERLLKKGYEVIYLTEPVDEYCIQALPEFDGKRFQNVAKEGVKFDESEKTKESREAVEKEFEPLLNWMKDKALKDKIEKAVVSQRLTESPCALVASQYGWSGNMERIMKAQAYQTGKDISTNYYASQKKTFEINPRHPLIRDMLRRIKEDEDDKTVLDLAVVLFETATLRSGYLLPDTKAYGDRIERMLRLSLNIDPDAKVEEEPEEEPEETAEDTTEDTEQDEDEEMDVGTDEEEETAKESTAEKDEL

Consider `CC(C)c1cc(C(=O)N2CCc3c(sc4nc(-c5ccc(NC(=O)Nc6ccc(F)c(Cl)c6)cc5)nc(N5CCOCC5)c34)C2)c(O)cc1O`, for which, in [1], the negative-log IC50 (pIC50) – broadly, the negative decadic logarithm of the IC50, by convention in mol/L – was 7.16. Turning to `N#Cc1c(N)nc2sc(C(N)=O)c(N)c2c1-c1ccc(Cl)cc1`, the pIC50 in test [2] was 5.60; in [3] it was 5.82. Take `CCOc1ccccc1Cn1ccnc1CCc1c(Cl)c(O)cc(O)c1C(=O)OC`: the pIC50 in [4] is 5.09; at Endoplasmin, 6.70. Take `CCOC(=O)c1c(O)cc(O)c(Cl)c1CC(=O)Nc1cc(O)c(OC)cc1O`: the negative logarithm of the Kd (pKd) in test [5] and in [6] was 6.06 in each case. For `COc1ccc(CN2CCC(NC(=O)c3noc(-c4cc(Cl)c(O)cc4O)c3-c3ccc(OC)cc3)CC2)cc1`, the pIC50 in test [7] is 8.00. Take `Cc1c(C)c(S(=O)(=O)Nc2ccc(Nc3ccnc(N4CCNCC4)n3)cc2)c(C)c2c1OC(C)(C)C2`: in [6], the pKd (usually −log10 of the Kd, conventionally taken in molar units) is 5.26. In test [7], `COc1ccc(-c2c(/C=C/C(=O)N3CCN(c4ccccc4OC)CC3)noc2-c2cc(Cl)c(O)cc2O)cc1` showed a negative-log IC50 (pIC50) of 6.22. Take `CC(C)c1cc(C(=O)N2Cc3ccccc3C2)c(O)c2ccoc12`: the negative-log Kd (pKd) in test [8] is 6.57; in [6], under 4.00.

Regarding `COc1ccc(-c2c(C#N)c(N)nc3sc(C(N)=O)c(N)c23)cc1OC`, the pIC50 was 5.04 in test [2] and 4.54 in test [3]. On to `CC(C)c1cc(C(=O)N2Cc3ccc(CN4CCN(C)CC4)cc3C2)c(O)cc1O` [ONALESPIB], for which, in test [8], the pKd is 5.05.

`CN(C)c1ccc(/C=C2\S/C(=N/c3ccccc3Cl)NC2=O)cc1`: the values for the pIC50 (on Tubulin; in test [1]) were 4.78 and 5.28, respectively.

With `Cc1ccc(Sc2cc(C(=O)N3Cc4ccc(OCCC[N+](C)(C)C)cc4C3)ccc2O)cc1C`, the negative-log Kd (pKd) in test [8] was under 4.00; in test [6], 6.47. As to `CC1(C)CC(=O)C=C(Nc2c(N)[nH]c(=O)[nH]c2=O)C1`, the pIC50 was 5.75 in test [1] and 5.35 in test [9].

These data come from ChEMBL document CHEMBL5614436, “Targeting HSP90 for Cancer Therapy: Current Progress and Emerging Prospects” (J Med Chem, 2024).
